In patent US20130129841A1, “THERAPEUTIC COMBINATION COMPRISING A PARP-1 INHIBITOR AND AN ANTI-NEOPLASTIC AGENT” (NERVIANO MEDICAL SCIENCES S.r.l., priority 2010, published 2013):
Where two headings read alike, the source gives them in different places.

What was measured:
[1] = tested on: ovarian cancer patients with confirmed BRCA-1 mutations; conditions: phase I, monotherapy, oral, preliminary data; cited from earlier work
[2] = tested on: Capan-1 BRCA-2 mutated human pancreatic xenograft model; conditions: for Toxicity: number of death animals
Method: (§1) Balb, Nu/Nu male mice, from Harlan (Italy) or CD1 Nu/Nu female mice from CRI, were maintained in agreement with the European Communities Council Directive no. 86/609/EEC, in cages with paper filter cover, food and bedding sterilized and acidified water. Fragments of Capan-1 human pancreatic cancer tumors, MX-1 human breast cancer tumors and HCT-116 human colon carcinoma were implanted subcutaneously. KM-12 cells were grown in vitro and 3×106 in 0,2 ml were implanted subcutaneously. The treatment started when tumors were palpable.
(§2) Compounds of formula (I) were administered by oral route in a volume of 10 ml/kg at the indicated doses from day 1 to 12. Temozolomide was administered orally at the dose of 62.5 mg/kg for 5 days. When combined, compound of formula (I) was administered from day 1 to 12 and temozolomide from day 3 to day 7. Irinotecan was administered intravenous at the dose of 45 mg/kg 2 or 3 times every 4 days. When combined, compound of formula (I) was administered from day 1 to 8 or to 12 and irinotecan on day 3 and day 7 or and days 1, 5 and 9. Docetaxel was administered intravenously at the dose of 5 mg/kg once a week for three times. When combined, compound of formula (I) was administered from day 1 to 12 and docetaxel on days 1, 8 and 15.
(§3) Tumor growth and body weight were measured every 3 days. Tumor growth was assessed by caliper. The two diameters were recorded and the tumor weight was calculated according the following formula: length (mm)×width^2 /2. The effect of the antitumor treatment was evaluated as the delay in the onset of an exponential growth of the tumor (see for references Anticancer drugs 7:437-60, 1996). This delay (T-C value) was defined as the difference of time (in days) required for the treatment group (T) and the control group (C) tumors to reach a predetermined size (1 g). Toxicity was evaluated on the basis of number of death animals during the experiment.

[3] = tested on: A-375 human melanoma cell line; experiment: In vitro combination cytotoxic activity, cell proliferation (CellTiterGlo), 6 days; type: cell-based; conditions: single agent
Method: Materials and methods. […] Drugs were added to the experimental culture, and incubations were carried out at 37° C. for 6 days in the dark. Serial dilution curves were prepared in medium by using a liquid handler Multiprobe II (PerkinElmer). Scalar doses of the compound of formula (I) and antineoplastic agents were added to the medium 24 hours after seeding. Drug solutions were prepared immediately before use. At the end of treatment, cell proliferation was determined by an intracellular adenosine triphosphate monitoring system (CellTiterGlo- Promega) using an Envision (PerkinElmer) reader. Inhibitory activity was evaluated comparing treated versus control data using the Assay Explorer (MDL) program. The dose inhibiting 50% of cell growth was calculated using sigmoidal interpolation curve.

[4] = tested on: HCT-116 human colorectal cancer xenograft model
Method: as §1, §2, §3

[5] = tested on: KM-12 human colorectal cancer xenograft model pTEN mutated
Method: as §1, §2, §3

[6] = tested on: MX-1 human breast cancer xenograft model BRCA-1 mutated; conditions: MX-1 xenograft; for Toxicity: number of death animals
Method: as §1, §2, §3

[7] = tested on: HCT-116 human colon cancer cell line; experiment: In vitro combination cytotoxic activity, cell proliferation (CellTiterGlo), 6 days; type: cell-based; conditions: single agent
Method: (§4) Materials and methods. Exponentially growing human cancer cell line (MDA-MB-436, MDA-MB-468, A-375, HCT-116, KM-12) was seeded and incubated at 37° C. in a humidified 5% CO2 atmosphere. Drugs were added to the experimental culture, and incubations were carried out at 37° C. for 6 days in the dark. Serial dilution curves were prepared in medium by using a liquid handler Multiprobe II (PerkinElmer). Scalar doses of the compound of formula (I) and antineoplastic agents were added to the medium 24 hours after seeding. Drug solutions were prepared immediately before use. At the end of treatment, cell proliferation was determined by an intracellular adenosine triphosphate monitoring system (CellTiterGlo- Promega) using an Envision (PerkinElmer) reader. Inhibitory activity was evaluated comparing treated versus control data using the Assay Explorer (MDL) program. The dose inhibiting 50% of cell growth was calculated using sigmoidal interpolation curve.

[8] = tested on: KM-12 human colon cancer cell line; experiment: as above; type: cell-based
Method: as §4

[9] = Capan-1, Table 8, Compound 1 100 mg/kg oral, days 1 to 12
[10] = Capan-1, Table 9, Compound 2 50 mg/kg oral, days 1 to 12
[11] = Compound 2 100 mg/kg oral, days 1 to 8 (footnote *)
[12] = docetaxel 5 mg/kg intravenous, days 1, 8 and 15
[13] = Capan-1, Table 8, temozolomide 62.5 mg/kg oral, days 3 to 7
[14] = Capan-1, Table 9, temozolomide 62.5 mg/kg oral, days 3 to 7

Which partial responses [1] does the source give for O=C(c1cc(Cc2n[nH]c(=O)c3ccccc23)ccc1F)N1CCN(C(=O)C2CC2)CC1 [AZD2281] here?
The partial responses was 4 out of 10.

Which T-C [2, 9] does the source give for NC(=O)c1cccc2c1C(=O)N(C1CCN(C3CCC(F)(F)CC3)CC1)C2 [Compound 1, 2-[1-(4,4-difluorocyclohexyl)piperidin-4-yl]-3-oxo-2,3-dihydro-1H-isoindole-4-carboxamide] here?
The T-C was 5 days.

And the Toxicity [2, 9]?
The Toxicity was 0/7.

With NC(=O)c1cc(F)cc2c1C(=O)N(C1CCN(C3CCC(F)(F)CC3)CC1)C2 [Compound 2, 2-[1-(4,4-difluorocyclohexyl)piperidin-4-yl]-6-fluoro-3-oxo-2,3-dihydro-1H-isoindole-4-carboxamide] as the compound, how does the IC50 [3] read?
Its IC50 is 32.5 µM.

What about the T-C ([4]; HCT-116 xenograft, Compound 2 50 mg/kg oral, days 1 to 8) of the same compound?
Its T-C is 1 days.

What about the T-C ([4]; HCT-116 xenograft, Compound 2 100 mg/kg oral, days 1 to 8) of the same compound?
The T-C was 4 days.

And the Toxicity ([4]; mouse, in vivo, po, 50 mg/kg)?
The Toxicity was 0/7.

What about the Toxicity ([4]; mouse, in vivo, po, 100 mg/kg) of the same compound?
The Toxicity was 0/7.

What about the T-C ([5]; KM-12 xenograft, Compound 2 50 mg/kg oral, days 1 to 12) of the same compound?
The T-C was 1 days.

And the Toxicity ([5]; mouse, in vivo, po, 50 mg/kg)?
The Toxicity was 0/7.

And the T-C [2, 10]?
Its T-C is 6 days.

And the Toxicity [2, 10]?
The Toxicity was 0/7.

And the T-C [6, 11]?
The T-C was 2 days.

And the Toxicity [6, 11]?
Its Toxicity is 0/7.

And the IC50 ([7]; Homo sapiens)?
Its IC50 is 14.1 µM.

And the IC50 ([8]; Homo sapiens, KM12, single agent)?
Its IC50 is 19.4 µM.

What does the source list for CC(=O)O[C@@]12CO[C@@H]1C[C@H](O)[C@@]1(C)C(=O)[C@H](O)C3=C(C)[C@@H](OC(=O)[C@H](O)[C@@H](NC(=O)OC(C)(C)C)c4ccccc4)C[C@@](O)([C@@H](OC(=O)c4ccccc4)[C@H]21)C3(C)C [Docetaxel, docetaxel, reference compound]?
T-C [6, 12]: 3 days; Toxicity [6, 12]: 0/7

Which T-C ([4]; HCT-116 xenograft, irinotecan 45 mg/kg intravenous, days 1, 5 and 9) does the source give for CCc1c2c(nc3ccc(OC(=O)N4CCC(N5CCCCC5)CC4)cc13)-c1cc3c(c(=O)n1C2)COC(=O)[C@]3(O)CC [Irinotecan, irinotecan, reference compound] here?
Its T-C is 16 days.

What about the Toxicity ([4]; HCT-116 xenograft, irinotecan 45 mg/kg intravenous, days 1, 5 and 9, number of death animals) of the same compound?
Its Toxicity is 0/7.

What about the T-C ([5]; KM-12 xenograft, irinotecan 45 mg/kg intravenous, days 3 and 7) of the same compound?
The T-C was 1 days.

And the Toxicity ([5]; KM-12 xenograft, irinotecan 45 mg/kg intravenous, days 3 and 7, number of death animals)?
The Toxicity was 0/7.

With CCc1c2c(nc3ccc(O)cc13)-c1cc3c(c(=O)n1C2)COC(=O)[C@]3(O)CC [SN-38, reference compound] as the compound, how does the IC50 [7] read?
Its IC50 is 0.0011 µM.

And the IC50 ([8]; single agent)?
Its IC50 is 0.0015 µM.

For Cn1nnc2c(C(N)=O)ncn2c1=O [Temozolomide, temozolomide, reference compound], which IC50 [3] is on record?
The IC50 was 932 µM.

What about the T-C [2, 13] of the same compound?
The T-C was 5 days.

What about the Toxicity [2, 13] of the same compound?
Its Toxicity is 0/7.

What about the T-C [2, 14] of the same compound?
The T-C was 9 days.

What about the Toxicity [2, 14] of the same compound?
Its Toxicity is 0/7.
